Measured values: ChEMBL document CHEMBL3045050, “A ligand-based approach for enhancing the pharmacokinetic profile of highly charged antibacterial agents” (Med Chem Res, 2012)
pIC50: −log10 of the molar value. In brackets after ≈: the same amount, converted by molar mass. Activity calls are given as the source filed them. The rule behind the calls is not given here.

Columns and labels:
Glutamate racemase = target: T1, Glutamate racemase (Streptococcus pneumoniae serotype 2 (strain D39 / NCTC 7466), UniProt Q04IS7); experiment: Inhibition of Streptococcus pneumoniae glutamate racemase
T1 sequence (Q04IS7 whole entry): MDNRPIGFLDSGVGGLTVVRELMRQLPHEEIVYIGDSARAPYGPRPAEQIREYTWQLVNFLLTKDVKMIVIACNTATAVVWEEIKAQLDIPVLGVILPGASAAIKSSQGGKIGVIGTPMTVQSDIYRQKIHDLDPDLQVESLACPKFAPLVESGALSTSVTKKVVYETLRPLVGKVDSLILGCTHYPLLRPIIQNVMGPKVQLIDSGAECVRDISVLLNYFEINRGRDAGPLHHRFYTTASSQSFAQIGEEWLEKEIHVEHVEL

Streptococcus pneumoniae [1] = experiment: Ratio of MIC for Streptococcus pneumoniae to IC50 for Streptococcus pneumoniae glutamate racemase
Streptococcus pneumoniae [2] = experiment: Antibacterial activity against Streptococcus pneumoniae; assay type: functional
Streptococcus pneumoniae [3] = experiment: Antibacterial activity against Streptococcus pneumoniae R6 incubated overnight by disk diffusion method; assay type: functional
Escherichia coli = experiment: Antibacterial activity against Escherichia coli incubated overnight by disk diffusion method; assay type: functional, organism-based
Staphylococcus aureus = experiment: Antibacterial activity against Staphylococcus aureus incubated overnight by disk diffusion method; assay type: functional, organism-based
Enterococcus faecium = experiment: Antibacterial activity against Enterococcus faecium incubated overnight by disk diffusion method; assay type: functional, organism-based
Enterococcus faecalis = experiment: Antibacterial activity against Enterococcus faecalis incubated overnight by disk diffusion method; assay type: functional, organism-based
Streptococcus pneumoniae [4] = experiment: Antibacterial activity against Streptococcus pneumoniae R6 at 0.5 to 3 mg/ml incubated overnight by disk diffusion method; assay type: functional, organism-based

Row | SMILES | pIC50 (Glutamate racemase) | MIC (Streptococcus pneumoniae [2]) [µg/mL] | MIC (Streptococcus pneumoniae [3]) [µg/mL] | Ratio (Streptococcus pneumoniae [1]) | Activity (Escherichia coli) | Activity (Staphylococcus aureus) | Activity (Enterococcus faecium) | Activity (Enterococcus faecalis) | Activity (Streptococcus pneumoniae [4])
1 | Cc1ccc(C(=O)CC(NCCc2c[nH]c3ccccc23)C(=O)O)cc1 (stereo not given) | – | – | 1000 (≈ 2850 µM) | – | inactive | inactive | inactive | inactive | –
2 | O=C(CC(NCCc1c[nH]c2ccccc12)C(=O)O)c1ccc(Cl)cc1 (stereo not given) | – | – | – | – | inactive | inactive | inactive | inactive | inactive
3 | O=C(CC(NCCc1c[nH]c2ccccc12)C(=O)O)c1ccc(F)cc1 (stereo not given) | – | – | 1000 (≈ 2820 µM) | – | inactive | inactive | inactive | inactive | –

Second part, led by results:

Row | pIC50 (Glutamate racemase) | MIC (Streptococcus pneumoniae [2]) [µg/mL] | MIC (Streptococcus pneumoniae [3]) [µg/mL] | SMILES | Ratio (Streptococcus pneumoniae [1]) | Activity (Escherichia coli) | Activity (Staphylococcus aureus) | Activity (Enterococcus faecium) | Activity (Enterococcus faecalis) | Activity (Streptococcus pneumoniae [4])
4 | 5.86 | 16 (≈ 44.8 µM) | – | N[C@H](C[C@H](C(=O)O)c1ccc(NC(=O)Nc2ccccc2)cc1)C(=O)O | 100 | – | – | – | – | –
5 | 5.76 | 0.24 (≈ 0.83 µM) | – | N[C@H](C[C@H](C(=O)O)c1cccc(-c2ccco2)c1)C(=O)O | – | – | – | – | – | –
6 | – | – | 1000 (≈ 2410 µM) | O=C(CC(NCCc1c[nH]c2ccccc12)C(=O)O)c1ccc(Br)cc1 (stereo not given) | – | inactive | inactive | inactive | inactive | –
